# Test results reported in US9187477B2, “Azabenzimidazole derivatives” (Boehringer Ingelheim International GmbH, priority 2013, dated 2015).
# How the values were obtained:
# [1] = biological target: AMPK complex 1 (containing alpha1beta1gamma1) (Homo sapiens (Human), UniProt Q13131+Q9Y478); assay: in vitro AMPK activation assay (ADP-Glo Kinase Assay); type: biochemical; settings: AMPK alpha1beta1gamma1, ATP 30 μM, peptide 1 μM, 60 min, room temperature
# Text: Activated AMPK complex 1 (containing alpha1beta1gamma1) was obtained from baculovirus expression system. The gene encoding AMPK alpha1 was cloned into the pACG2T vector (BD Biosciences) to obtain a N-terminal Glutathion S transferase (GST)-fusion protein. The genes encoding AMPK beta1 and gamma1 were cloned into the p2Bac dual multiple cloning site vector (Invitrogen) with beta1 under the control of the p10 promoter and gamma1 under the control of the PH promoter. The transfer vectors containing AMPK were co-transfected individually with AcPNV BacMagic-3 DNA (EMD Millipore) in Sf9 cells and the recombinant baculoviruses were harvested after 5 days, followed by 3 rounds of amplification of the virus stock in Sf9 cells. AMPK (alpha1beta1gamma1) was expressed in High Five 5 cells by co-infection of recombinant alpha1 virus and recombinant beta1/gamma1 virus for 72 h at 27° C. Cells were harvested by centrifugation and lysed by 3 freeze/thaw cycles in PBS with 10% glycerol and protease inhibitor cocktail (Roche). After centrifugation AMPK a1b1g1 in the supernatant was captured by immobilized glutathione (GE Healthcare), impurities were washed away with PBS and AMPK alpha1beta1gamma1 was eluted with PBS containing 20 mM reduced gluthathione. The protein buffer was then exchanged to PBS with 10% glycerol and protein concentration was determined by UV absorbance.
# The white 384-well Optiplates (cat. no. 6007299) were purchased from PerkinElmer. The V9101 ADP-Glo Kinase Assay and ultra pure ATP (V915A) was purchased from Promega. The substrate for AMPK (NH2-HMRSAMSGLHLVKRR_CONH2) was purchased from Upstate (12-355).
# Compounds were tested in either serial dilutions or single dose concentrations. The serial compound dilutions were prepared in 100% DMSO automatically. The final DMSO concentration in the assay was 0.1%.
# The Compound Stock Solutions were 10 mM in 100% DMSO. The compounds were solubilised at room temperature.
# In the 384-well plates 1.25 ul of test compound in assay buffer was mixed with 1.25 ul of AMPK and 1.25 μl of the peptide (final concentration of 1 μM) and 1.25 μl of ATP (final concentration of 30 μM), both dissolved in assay buffer. This step was followed by an incubation time of 60 min. Then 5 μl of ADP Glo Reagent was added. This was followed by 40 min of incubation. Then 10 μl of Kinase Detection Reagent was admixed. The plates were sealed and after an incubation period of 30 min, the luminescence signal was measured in an Envision reader. All incubation steps were accomplished at room temperature.
# Each assay microtiter plate contained wells with vehicle controls instead of compound (0.1% DMSO in water) as reference for the low signal (100% CTL, low signal), and wells with serial dilutions of AMP (final 30 μM) as reference for high signals.
# The luminescence signal generated was proportional to the ADP concentration produced and was correlated with AMPK activity. The analysis of the data was performed by the calculation of the percentage of ATP consumption of AMPK in the presence of the test compound compared to the consumption of ATP in the presence of AMPK without compound. (RLU(sample)/RLU(low control))*100[RLU=relative luminescence units]
# An activator of the AMPK enzyme gave values above 100% CTL.
# EC50 values based on dose response curves are calculated with the XIFIT software using the 4 Parameter Logistic Model or Sigmoidal Dose-Response Model.
# [2] = Metabolic stability: metabolic degradation with pooled human liver microsomes; type: in vitro ADME; settings: for c (control) (metabolic stability), remaining test compound after NADPH independent incubation: incubation without NADPH, after 2 hours, human liver microsomes; for t1/2 INVITRO: pooled human liver microsomes 1 mg/ml, 37° C., test compound 1 μM, NADPH 1 mM
# Protocol: The metabolic degradation of the test compound is assayed at 37° C. with pooled human liver microsomes. The final incubation volume of 100 μl per time point contains TRIS buffer pH 7.6 at room temperature (0.1 M), magnesium chloride (5 mM), microsomal protein (1 mg/ml) and the test compound at a final concentration of 1 μM.
# Following a short preincubation period at 37° C., the reactions were initiated by addition of beta-nicotinamide adenine dinucleotide phosphate, reduced form (NADPH, 1 mM) and terminated by transferring an aliquot into solvent after different time points.
# Additionally, the NADPH-independent degradation was monitored in incubations without NADPH, terminated at 2 hour time point. The [%] remaining test compound after NADPH independent incubation is reflected by the parameter c (control) (metabolic stability). A c (control) (metabolic stability) value around 100% excludes cofactor independent activities (e.g. from esterases).
# The quenched incubations are pelleted by centrifugation (10000 g, 5 min).
# An aliquot of the supernatant is assayed by LC-MS/MS for the amount of parent compound. The half-life (t1/2 INVITRO) is determined by the slope of the semilogarithmic plot of the concentration-time profile.
# Sequence of AMPK complex 1 (containing alpha1beta1gamma1) (Q13131 whole entry, the tested form may be a part): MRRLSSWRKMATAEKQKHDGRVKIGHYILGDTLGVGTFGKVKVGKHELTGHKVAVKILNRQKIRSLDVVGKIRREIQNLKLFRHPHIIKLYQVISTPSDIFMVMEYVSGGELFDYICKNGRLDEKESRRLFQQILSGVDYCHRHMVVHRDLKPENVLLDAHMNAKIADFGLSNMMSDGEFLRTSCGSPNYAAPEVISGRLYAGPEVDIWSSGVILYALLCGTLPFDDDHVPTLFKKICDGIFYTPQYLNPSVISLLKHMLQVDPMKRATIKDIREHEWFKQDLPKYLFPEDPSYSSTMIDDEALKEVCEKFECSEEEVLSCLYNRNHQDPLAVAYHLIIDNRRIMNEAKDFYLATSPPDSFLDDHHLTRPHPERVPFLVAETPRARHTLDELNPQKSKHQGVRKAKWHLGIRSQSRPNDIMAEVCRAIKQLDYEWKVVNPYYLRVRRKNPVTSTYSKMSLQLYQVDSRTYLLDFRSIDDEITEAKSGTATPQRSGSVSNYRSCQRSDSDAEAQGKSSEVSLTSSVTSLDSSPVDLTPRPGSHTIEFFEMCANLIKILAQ
# Sequence of AMPK complex 1 (containing alpha1beta1gamma1) (Q9Y478 whole entry, the tested form may be a part): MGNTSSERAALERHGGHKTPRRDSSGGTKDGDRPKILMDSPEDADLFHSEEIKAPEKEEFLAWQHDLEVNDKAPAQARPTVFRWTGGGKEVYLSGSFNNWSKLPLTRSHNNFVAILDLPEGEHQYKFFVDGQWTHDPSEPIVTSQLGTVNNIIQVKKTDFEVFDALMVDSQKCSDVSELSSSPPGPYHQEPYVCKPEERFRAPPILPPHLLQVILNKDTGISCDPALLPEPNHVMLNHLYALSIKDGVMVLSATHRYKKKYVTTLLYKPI
# Sequence of AMPK complex 1 (containing alpha1beta1gamma1) (P54619 whole entry partner, the tested form may be a part): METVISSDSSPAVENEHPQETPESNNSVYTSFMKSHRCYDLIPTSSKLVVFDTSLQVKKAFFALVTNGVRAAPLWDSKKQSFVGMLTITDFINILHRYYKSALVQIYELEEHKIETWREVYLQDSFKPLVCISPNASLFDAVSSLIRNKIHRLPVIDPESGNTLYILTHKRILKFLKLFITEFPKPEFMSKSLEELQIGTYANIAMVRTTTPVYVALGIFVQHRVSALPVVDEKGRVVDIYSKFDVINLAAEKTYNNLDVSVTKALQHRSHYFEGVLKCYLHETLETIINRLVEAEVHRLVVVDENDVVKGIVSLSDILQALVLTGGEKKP
SMILES,EC50 [1],"c (control) (metabolic stability), remaining test compound after NADPH independent incubation [2]",t1/2 INVITRO [2]
"CCNC(=O)O[C@H]1CC[C@@H](c2ccc(-c3nc4[nH]c(O[C@@H]5CO[C@H]6[C@@H]5OC[C@H]6O)nc4cc3Cl)cc2)CC1 [Example 10, (cis)-4-(4-(6-Chloro-2-((3R,3aR,6R,6aR)-6-hydroxyhexahydrofuro[3,2-b]furan-3-yloxy)-3H-imidazo[4,5-b]pyridin-5-yl)phenyl)cyclohexyl ethylcarbamate]",26 nM,105%,>2.17 h
"CC(C)NC(=O)O[C@H]1CC[C@@H](c2ccc(-c3nc4[nH]c(O[C@@H]5CO[C@H]6[C@@H]5OC[C@H]6O)nc4cc3Cl)cc2)CC1 [Example 11, (cis)-4-(4-(6-Chloro-2-((3R,3aR,6R,6aR)-6-hydroxyhexahydrofuro[3,2-b]furan-3-yloxy)-3H-imidazo[4,5-b]pyridin-5-yl)phenyl)cyclohexyl isopropylcarbamate]",35 nM,106%,1.83 h
